Reference: PMC3850815, “Molecular details of ligand selectivity determinants in a promiscuous β-glucan periplasmic binding protein” (BMC Structural Biology, 2013)

Key:
[1] = target: T1, tmCBP (Thermotoga maritima cellobiose-binding protein) (Thermotoga maritima, UniProt Q9WXN8); assay: small-angle neutron scattering, ligand-induced closure; details: 5 mM ligand, 20 mM Tris pH 8.0, 40 mM NaCl, D2O, 20 °C
T1 construct: gene TM_0031; recombinant, E. coli BL21-RIL, nickel chelation purification (tagged); 582 residues modelled; ligand-free protein from Enfor's minimal medium

[2] = target: T1, tmCBP (Thermotoga maritima cellobiose-binding protein); assay: CD thermal denaturation at […] nm; details: Tm without ligand 94.8 °C; 1 mM ligand, 0.5 μM protein, 2 M guanidine hydrochloride, 10 mM Tris-HCl pH 8.0, 40 mM NaCl
[3] = target: the molecule itself; assay: small-angle neutron scattering (SANS); tmCBP at 4.2-16.7 mg/mL in 20 mM Tris pH 8.0, 40 mM NaCl, 100% D2O, 20°C; molecular mass from the intensity at zero scattering angle; apo protein, and with 5 mM cellobiose added (associations then alleviated)

Tm [2] | Molecule | further results
105.2 °C | OC[C@H]1O[C@@H](O[C@@H]2[C@@H](O)[C@H](O[C@@H]3[C@@H](O)[C@H](O[C@@H]4[C@@H](O)[C@H](O[C@H]5[C@H](O)[C@@H](CO)OC(O)[C@@H]5O)O[C@H](CO)[C@H]4O)O[C@H](CO)[C@H]3O)O[C@H](CO)[C@H]2O)[C@H](O)[C@@H](O)[C@@H]1O (stereo partly shown) [LR5, laminaripentaose] | –
99.2 °C | OC[C@H]1O[C@@H](O[C@H]2[C@H](O)[C@@H](CO)OC(O)[C@@H]2O)[C@H](O)[C@@H](O)[C@@H]1O (stereo partly shown) [LR2, laminaribiose] | –

Further lines, the molecule ahead of its results:

Molecule | Tm [2] | further results
OC[C@H]1O[C@@H](O[C@H]2[C@H](O)[C@@H](O)C(O)O[C@@H]2CO)[C@H](O)[C@@H](O)[C@@H]1O (stereo partly shown) [cellobiose] | – | small-angle neutron scattering, ligand-induced closure [1]: Upon addition of ligand the protein undergoes large scale conformational changes
Thermotoga maritima cellobiose binding protein (natural protein, final crystal models hold 582 amino acids; expected mass 68.7 kDa; the apo (ligand-free) form was used for the SANS measurement of self-association; also called tmCBP) QVSLPREDTVYIGGALWGPATTWNLYAPQSTWGTDQFMYLPAFQYDLGRDAWIPVIAERYEFVDDKTLRIYIRPEARWSDGVPITADDFVYALELTKELGIGPGGGWDTYIEYVKAVDTKVVEFKAKEENLNYFQFLSYSLGAQPMPKHVYERIRAQMNIKDWINDKPEEQVVSGPYKLYYYDPNIVVYQRVDDWWGKDIFGLPRPKYLAHVIYKDNPSASLAFERGDIDWNGLFIPSVWELWEKKGLPVGTWYKKEPYFIPDGVGFVYVNNTKPGLSDPAVRKAIAYAIPYNEMLKKAYFGYGSQAHPSMVIDLFEPYKQYIDYELAKKTFGTEDGRIPFDLDMANKILDEAGYKKGPDGVRVGPDGTKLGPYTISVPYGWTDWMMMCEMIAKNLRSIGIDVKTEFPDFSVWADRMTKGTFDLIISWSVGPSFDHPFNIYRFVLDKRLSKPVGEVTWAGDWERYDNDEVVELLDKAVSTLDPEVRKQAYFRIQQIIYRDMPSIPAFYTAHWYEYSTKYWINWPSEDNPAWFRPSPWHADAWPTLFIISKKSDPQPVPSWLGTVDEGGIEIPTAKIFEDLQKATM | – | binding result [3]: binds
